Activity calls are given as the source filed them.
What was measured:
[1] = Trypanosoma cruzi growth suppression in host cells – NIH3T3 host cells, beta-gal luminescence, confirmation (AID 2044); type: functional, cell-based;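 also: intracellular parasites grown in NIH/3T3 mouse fibroblasts as host cells; luminescent beta-galactosidase reporter signal from transgenic T. cruzi replicating inside host cells; inhibitors lower the luminescence signal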
[2] = tested on: Streptococcus; assay: GAS UMAA2166 growth inhibition – luminescence, BacTiterGlo, counter-screen for streptokinase expression inhibitor project, dose response (AID 1915); type: functional, organism-based;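 also: potency for reduction of bacterial viability or growth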
[3] = biological target: DNA dC->dU-editing enzyme APOBEC-3A (Homo sapiens, UniProt P31941); assay: A3A deaminase inhibition for selectivity – biochemical, dose response (AID 504722); type: functional
[4] = biological target: DNA dC->dU-editing enzyme APOBEC-3G (Homo sapiens, UniProt Q9HC16); assay: Dose Response confirmation of small molecule APOBEC3G DNA Deaminase Inhibitors via a fluorescence-based single-stranded DNA deaminase assay. [Related pubchem assays (depositor defined):AID493012, AID493028]; type: functional
[5] = biological target: T1, Apoptotic protease-activating factor 1 (Homo sapiens, UniProt O14727); type: functional
T1 sequence (O14727 whole entry): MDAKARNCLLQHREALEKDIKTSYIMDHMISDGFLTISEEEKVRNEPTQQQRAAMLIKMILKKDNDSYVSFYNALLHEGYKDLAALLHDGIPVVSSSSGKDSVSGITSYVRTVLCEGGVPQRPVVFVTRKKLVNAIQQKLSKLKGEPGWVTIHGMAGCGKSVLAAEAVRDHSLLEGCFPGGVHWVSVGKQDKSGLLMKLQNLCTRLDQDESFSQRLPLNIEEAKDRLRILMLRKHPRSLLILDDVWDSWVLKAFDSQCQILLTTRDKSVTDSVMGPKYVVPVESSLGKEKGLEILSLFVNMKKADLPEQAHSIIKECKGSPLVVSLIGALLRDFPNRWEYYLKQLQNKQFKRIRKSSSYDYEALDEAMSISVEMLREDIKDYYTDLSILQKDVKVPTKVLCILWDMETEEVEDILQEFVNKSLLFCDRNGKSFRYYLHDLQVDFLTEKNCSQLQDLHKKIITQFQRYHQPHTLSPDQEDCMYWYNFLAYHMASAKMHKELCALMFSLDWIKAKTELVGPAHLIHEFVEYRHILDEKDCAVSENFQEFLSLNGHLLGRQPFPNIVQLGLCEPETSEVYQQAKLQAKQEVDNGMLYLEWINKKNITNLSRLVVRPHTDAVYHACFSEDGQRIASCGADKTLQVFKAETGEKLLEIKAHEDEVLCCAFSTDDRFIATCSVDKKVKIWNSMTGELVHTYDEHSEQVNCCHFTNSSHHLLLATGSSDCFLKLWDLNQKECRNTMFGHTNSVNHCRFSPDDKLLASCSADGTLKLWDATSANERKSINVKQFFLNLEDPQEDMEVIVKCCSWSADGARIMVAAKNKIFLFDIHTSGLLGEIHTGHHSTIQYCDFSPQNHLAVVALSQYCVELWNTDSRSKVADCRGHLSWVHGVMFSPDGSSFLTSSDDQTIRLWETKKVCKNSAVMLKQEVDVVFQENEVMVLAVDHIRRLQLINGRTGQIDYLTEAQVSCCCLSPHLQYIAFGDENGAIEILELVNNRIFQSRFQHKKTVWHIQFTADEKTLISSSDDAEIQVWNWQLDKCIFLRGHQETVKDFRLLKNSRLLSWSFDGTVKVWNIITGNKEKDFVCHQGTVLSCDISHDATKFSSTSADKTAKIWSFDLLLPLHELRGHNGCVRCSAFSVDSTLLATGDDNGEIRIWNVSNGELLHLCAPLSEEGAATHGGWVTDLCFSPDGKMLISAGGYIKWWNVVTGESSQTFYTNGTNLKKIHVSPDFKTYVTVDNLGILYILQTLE

[6] = biological target: T2, Protein RecA (Mycobacterium tuberculosis, UniProt P9WHJ3); assay: Fluorescence Cell-Free Homogeneous Dose Retest to Identify Inhibitors of RecA-Intein Splicing Activity. [Related pubchem assays (depositor defined):AID2097, AID2223, AID489010, AID492950]; type: functional
T2 sequence (P9WHJ3 whole entry): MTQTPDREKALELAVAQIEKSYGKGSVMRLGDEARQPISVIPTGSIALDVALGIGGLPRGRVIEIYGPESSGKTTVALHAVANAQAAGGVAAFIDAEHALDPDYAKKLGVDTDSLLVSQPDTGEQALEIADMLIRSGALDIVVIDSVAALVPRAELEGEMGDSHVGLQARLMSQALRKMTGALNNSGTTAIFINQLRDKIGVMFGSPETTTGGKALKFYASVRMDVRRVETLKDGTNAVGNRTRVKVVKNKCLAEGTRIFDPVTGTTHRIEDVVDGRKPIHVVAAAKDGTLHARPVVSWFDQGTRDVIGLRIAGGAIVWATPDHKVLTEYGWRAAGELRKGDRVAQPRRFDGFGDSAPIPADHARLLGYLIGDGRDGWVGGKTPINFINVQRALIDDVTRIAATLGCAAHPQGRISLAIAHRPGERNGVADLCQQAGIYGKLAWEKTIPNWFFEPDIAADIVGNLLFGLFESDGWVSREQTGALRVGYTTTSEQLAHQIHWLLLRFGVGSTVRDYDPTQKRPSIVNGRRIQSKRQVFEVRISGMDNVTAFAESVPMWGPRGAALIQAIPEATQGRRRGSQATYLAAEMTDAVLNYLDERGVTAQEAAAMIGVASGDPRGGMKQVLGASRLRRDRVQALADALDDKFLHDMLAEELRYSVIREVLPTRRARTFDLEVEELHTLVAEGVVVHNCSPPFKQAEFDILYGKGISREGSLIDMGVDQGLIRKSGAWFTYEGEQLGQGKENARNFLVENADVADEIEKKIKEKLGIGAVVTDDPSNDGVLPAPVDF

Chain of DNA dC->dU-editing enzyme APOBEC-3A (P31941 whole entry): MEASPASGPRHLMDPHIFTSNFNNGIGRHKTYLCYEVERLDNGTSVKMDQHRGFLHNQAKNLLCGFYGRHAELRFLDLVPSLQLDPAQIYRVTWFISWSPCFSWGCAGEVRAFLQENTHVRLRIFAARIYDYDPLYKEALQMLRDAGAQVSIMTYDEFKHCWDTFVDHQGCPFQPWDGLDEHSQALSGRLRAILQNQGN
Chain of DNA dC->dU-editing enzyme APOBEC-3G (Q9HC16 whole entry): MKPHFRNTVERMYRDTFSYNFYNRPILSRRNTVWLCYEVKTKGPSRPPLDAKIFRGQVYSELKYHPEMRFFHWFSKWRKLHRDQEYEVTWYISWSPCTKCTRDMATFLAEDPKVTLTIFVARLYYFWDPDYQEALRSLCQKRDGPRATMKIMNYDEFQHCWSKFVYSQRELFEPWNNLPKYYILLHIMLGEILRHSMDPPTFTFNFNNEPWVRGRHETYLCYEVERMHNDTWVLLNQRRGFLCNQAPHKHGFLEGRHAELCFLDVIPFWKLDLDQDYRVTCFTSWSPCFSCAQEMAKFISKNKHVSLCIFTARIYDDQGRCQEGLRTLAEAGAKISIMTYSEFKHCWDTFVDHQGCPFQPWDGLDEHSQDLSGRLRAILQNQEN

Structure (SMILES) | EC50 [1] | EC50 [2] | IC50 [3] | IC50 [4] | IC50 [5] | EC50 [6]
CC(=O)N(C1=C(Cl)C(=O)c2ccccc2C1=O)C1CCCCC1 | 1.83 µM (active) | > 150 µM (not active) | > 100 µM (inactive) | 7.68 µM (active) | 3.12 µM (active) | 1.18 µM (active)
Oc1ccc(-c2cn3c(n2)SCC3)cc1O | – | – | > 100 µM (inactive) | 12.6 µM (active) | – | –
Cc1ccc(NC2=C/C(=N\S(=O)(=O)c3cccs3)c3ccccc3C2=O)c(C)c1 | 0.719 µM (active) | 3.08 µM (active) | – | – | 0.411 µM (active) | 0.185 µM (active)
COc1ccc(/C=N/NC(=O)c2nn(-c3ccccc3)c(=O)c3c(N)scc23)cc1 | – | – | – | – | 15.3 µM (active) | 0.22 µM (active)
